Test results: patent US7494996B2 (priority 2000, dated 2009)

How the values were obtained:
Sphaerotheca fuliginea = assay: Cucumber Powdery Mildew (CPM) protectant test in the greenhouse; format: in vivo; settings: 300 g/ha, 100 is total disease control, 0 is no disease control
Experimental: Plants used in the fungicide testing program were grown in 2-¼-inch (5.7-cm). square pots containing RediEarth propagation substrate. The plants were raised under greenhouse conditions. The rice plants were 12-days-old and cucumbers were 13-days-old at the time of spraying with chemical treatments.
The sample of the experimental chemical was weighed and dissolved in an acetone-methanol-water solution (A/M/W at 1:1:2 ratio by volume).
After sprayer calibration, the test solutions were poured into the fungicide sprayer. The fungicide sprayer contains three spray nozzles, located approximately 10 cm above and to the sides of the plants. The spray produced by the nozzles results in uniform coverage of both the upper and lower parts of the plant leaves. After spraying, the treated plants were placed in a drying chamber for 4 hours, prior to sorting.
Cucumber Powdery Mildew (CPM), caused by the fungus Sphaerotheca fuliginea, was maintained on large cucumber plants. For inoculum preparation, five to eight leaves depending on size, completely covered with powdery mildew spores, were collected. The leaves were placed in a glass jar and covered with 500 ml of water, containing 5 drops of Tween-80. The material was filtered through two layers of cheesecloth to remove leaf fragments. The spore count was adjusted to 2×10^5 spores per ml.
Cucumber plants, cv. “Bush Champion,” were used for this test. The plants were thinned to one per pot after the cotyledons were fully developed. Two days before the test, the small leaves and meristem region were removed, leaving only the cotyledons and one large true leaf.
The protectant tests required that the cucumber plants be inoculated 1 day after spraying with the chemical treatment. The plants were inoculated with a hand-held spray bottle with the suspension of fungal spores. The leaves were lightly misted on the upper surface from two different spray directions. Disease development occurred in the greenhouse.
After seven days, the plants were evaluated for percent of disease control. The results are reported as percent control; 100 is total disease control, 0 is no disease control.

Pyricularia oryzae = assay: whole plant or invertebrate; format: in vivo; settings: protectant, 300 g/ha, greenhouse; 100 is total disease control, 0 is no disease control

SMILES | Cucumber Powdery Mildew (CPM) protectant fungicide data, percent control (Sphaerotheca fuliginea) [percent control] | Rice Blast (RB) protectant fungicide data, percent control (Pyricularia oryzae) [percent control]
CN1N=C(c2ccccc2)NCC1=O [Compound 31] | 0 | 50
O=C1CNC(c2ccc(Cl)c(Cl)c2)=NN1CC(F)(F)F [Compound 99] | 80 | 100
N#CCCN1N=C(c2ccc(-c3ccc([N+](=O)[O-])cc3)cc2)NCC1=O [Compound 166] | 0 | 75
CCOC(=O)Cn1nc(-c2ccc(Cl)cc2)ncc1=O [Compound 250] | 50 | 90
O=C1CNC(c2ccc(F)c(F)c2)=NN1Cc1ccccc1 [Compound 139] | 50 | 99
CCCCCN1N=C(c2ccc(Cl)c(Cl)c2)NCC1=O [Compound 197] | 75 | 99
CCCCN1N=C(c2cc(Br)c(OC)c(Br)c2)NCC1=O [Compound 120] | 0 | 80
CCCCN1N=C(c2ccc(-c3ccc(C(=O)OCC)cc3)cc2)NCC1=O [Compound 206] | 80 | 85
CCCCn1nc(-c2ccccc2OC)ncc1=O [Compound 283] | 50 | 90
CCCCN1N=C(c2cc(C)cc(C)c2)NCC1=O [Compound 295] | 50 | 99
CCCCCCN1N=C(c2ccc(Cl)cc2)NCC1=O [Compound 55] | 50 | 90
N#CCCn1nc(-c2ccc(-c3ccc([N+](=O)[O-])cc3)cc2)ncc1=O [Compound 276] | 0 | 85
CCCCN1N=C(C)NC(c2ccc(F)cc2)C1=O (centres unmarked) [Compound 93] | 75 | 0
C=CCOC(=O)N1CC(=O)N(CC(F)(F)F)N=C1c1cc(Cl)cc(Cl)c1 [Compound 134] | 50 | 80
CCCCN1N=C(c2ccc(Cl)c(Cl)c2)N(Cc2ccccc2)CC1=O [Compound 182] | 0 | 85
Cc1cc(C)cc(C2=NN(CC(F)(F)F)C(=O)CN2)c1 [Compound 296] | 75 | 98
CC(C)(C)OC(=O)N1CC(=O)N(C(=O)OC(C)(C)C)N=C1c1cc(Cl)cc(Cl)c1 [Compound 11, 1,4-di-(t-butoxycarbonyl)-3-(3,5-dichlorphenyl)-4,5-dihydro-1,2,4-triazin-6-one] | 0 | 75

SMILES | Cucumber Powdery Mildew (CPM) protectant fungicide data, percent control (Sphaerotheca fuliginea) [percent control] | Rice Blast (RB) protectant fungicide data, percent control (Pyricularia oryzae) [percent control]
O=C1CNC(c2cccc([N+](=O)[O-])c2)=NN1Cc1ccccc1 [Compound 184] | 75 | 85
CCC#CCN1CC(=O)N(CC#CCC)N=C1c1ccc(Cl)c(Cl)c1 [Compound 209] | 0 | 75
CCC#CCn1nc(-c2ccc(Cl)cc2)nc(C)c1=O [Compound 237] | 95 | 0
CCCCN1N=C(c2ccc(Cl)c(Cl)c2)N(C(=S)Oc2ccccc2)CC1=O [Compound 178] | 0 | 75
CCCCN1N=C(c2ccccc2OC)NCC1=O [Compound 195] | 50 | 99
CCCCN1N=C(c2cccc(F)c2)NCC1=O [Compound 221] | 80 | 85
CCCCOc1ccc(C2=NN(CCC#N)C(=O)CN2)cc1 [Compound 160] | 0 | 75
CCCCN1N=C(c2ccc(Cl)c(Cl)c2)N(C(=O)C2CC2)CC1=O [Compound 181] | 0 | 50
O=C1CNC(c2cccc(C(F)(F)F)c2)=NN1CC(F)(F)F [Compound 153] | 0 | 100
C=COC(=O)N1CC(=O)N(CC(F)(F)F)N=C1c1cc(Cl)cc(Cl)c1 [Compound 113] | 75 | 99
CCCCn1nc(-c2cc(Cl)ccc2Cl)ncc1=O [Compound 269] | 0 | 99
C=CC(=O)N1CC(=O)N(CC(F)(F)F)N=C1c1cc(Cl)cc(Cl)c1 [Compound 137] | 0 | 85
Cc1ccc(C2=NN(CC(F)(F)F)C(=O)CN2)cc1Cl [Compound 293] | 50 | 100
CCCCn1nc(-c2sc(C)nc2C(F)(F)F)ncc1=O [Compound 268] | 75 | 0
CCCN1N=C(c2ccc(F)cc2)NCC1=O [Compound 148] | 80 | 80
C#CCN1CC(=O)N(CC#C)N=C1c1ccc(Cl)c(Cl)c1 [Compound 216] | 80 | 98
COC(=O)SN1CC(=O)N(CC(F)(F)F)N=C1c1cc(Cl)cc(Cl)c1 [Compound 292] | 75 | 99
